From patent US20020019543A1, “Thiol derivative, metallo-beta-lactamase inhibitors” (priority 2000, published 2002)

Key:
[1] = test system: E. coli BL21(DE3)/pET30a-IMP-1; type: cell-based; details: thioester conc giving 4-fold increase in sensitivity to the Merck carbapenem (0.25x MIC), no visible growth after 20 hours at 35° C.
Description: (§1) A laboratory strain of E.coli engineered to express IMP-1 was used to evaluate the ability of thiol derivatives to reverse metallo-β-lactamase-mediated carbapenem resistance in bacteria. Native IMP-1, which included the N-terminal periplasmic signal sequence, was PCR amplified from […] isolated from a carbapenem resistant P. aeruginosa clinical isolate, CL56673, and cloned into the pET30a vector.

E. coli BL21(DE3) = experiment: Carbapenem sensitivity (MIC) of E. coli BL21(DE3) with and without IMP-1 expression; type: cell-based; details: for fold reduced sensitivity caused by basal (uninduced) IMP-1 expression: pET30a-IMP-1 in E. coli BL21(DE3)
Experimental: as §1, with “vector. […] Various concentrations of IMP-1 inhibitor were added to the bacterial growth medium and their capacity to effect a four-fold or greater increase in sensitivity to the carbapenem was monitored.” for “vector.”

Row | Molecule | Effective conc for 4-fold reduction of MIC in E. coli [1] | fold reduced sensitivity caused by basal (uninduced) IMP-1 expression (E. coli BL21(DE3)) | other results
1 | O=C(SC(Cc1ccc2oc3ccccc3c2c1)C(=O)O)c1ccccc1 (centres unmarked) [Example 79] | 0.2 µM |  | 
2 | (1S,5R,6S)-1-methyl-2-{7-[4-(aminocarbonylmethyl)-1,4-diazoniabicyclo(2.2.2)octan-1-yl]methyl-fluoren-9-on-3-yl}-6-(1R-hydroxyethyl)-carbapen-2-em-3-carboxylate chloride |  | 500 fold | minimum inhibitory concentration (MIC), without IMP-1 expression (E. coli BL21(DE3); E. coli BL21(DE3), before expression of IMP-1): 0.06 to 0.12 µg/mL; minimum inhibitory concentration (MIC), with IMP-1 expression (E. coli BL21(DE3); E. coli BL21(DE3)/pET30a-IMP-1, basal IMP-1 expression): 16 to 32 µg/mL
3 | C[C@@H](O)[C@H]1C(=O)N2C(C(=O)O)=C(SCCN=CN)C[C@H]12 [impenem] |  | 4 fold | 
4 | C[C@@H](O)[C@H]1C(=O)N2C(C(=O)O)=C(S[C@@H]3CN[C@H](C(=O)N(C)C)C3)[C@H](C)[C@H]12 [meropenem] |  | 64 fold | 
5 | CC(=O)SC(Cc1ccc2oc3ccccc3c2c1)C(=O)O (centres unmarked) [Example 78] | ≦0.1 μM |  | 
6 | CC(=O)N[C@H](C)C(=O)S[C@H](Cc1ccc(-c2ccccc2)cc1)C(=O)O [Example 13] | 6.3 µM |  | 
